The results in this text go back to patent US20100261765A1, “MINERALOCORTICOID RECEPTOR MODULATORS” (priority 2007, published 2010).

Where two headings read alike, the source gives them in different places.

Data set [1] addresses T1, recombinant rhesus mineralocorticoid receptor (Macaca mulatta, UniProt A0A5F8ATS5).
T1 construct: made in house; host or cells: insect cells infected with recombinant baculovirus; clarified lysate used
T1 sequence (A0A5F8ATS5 1-984): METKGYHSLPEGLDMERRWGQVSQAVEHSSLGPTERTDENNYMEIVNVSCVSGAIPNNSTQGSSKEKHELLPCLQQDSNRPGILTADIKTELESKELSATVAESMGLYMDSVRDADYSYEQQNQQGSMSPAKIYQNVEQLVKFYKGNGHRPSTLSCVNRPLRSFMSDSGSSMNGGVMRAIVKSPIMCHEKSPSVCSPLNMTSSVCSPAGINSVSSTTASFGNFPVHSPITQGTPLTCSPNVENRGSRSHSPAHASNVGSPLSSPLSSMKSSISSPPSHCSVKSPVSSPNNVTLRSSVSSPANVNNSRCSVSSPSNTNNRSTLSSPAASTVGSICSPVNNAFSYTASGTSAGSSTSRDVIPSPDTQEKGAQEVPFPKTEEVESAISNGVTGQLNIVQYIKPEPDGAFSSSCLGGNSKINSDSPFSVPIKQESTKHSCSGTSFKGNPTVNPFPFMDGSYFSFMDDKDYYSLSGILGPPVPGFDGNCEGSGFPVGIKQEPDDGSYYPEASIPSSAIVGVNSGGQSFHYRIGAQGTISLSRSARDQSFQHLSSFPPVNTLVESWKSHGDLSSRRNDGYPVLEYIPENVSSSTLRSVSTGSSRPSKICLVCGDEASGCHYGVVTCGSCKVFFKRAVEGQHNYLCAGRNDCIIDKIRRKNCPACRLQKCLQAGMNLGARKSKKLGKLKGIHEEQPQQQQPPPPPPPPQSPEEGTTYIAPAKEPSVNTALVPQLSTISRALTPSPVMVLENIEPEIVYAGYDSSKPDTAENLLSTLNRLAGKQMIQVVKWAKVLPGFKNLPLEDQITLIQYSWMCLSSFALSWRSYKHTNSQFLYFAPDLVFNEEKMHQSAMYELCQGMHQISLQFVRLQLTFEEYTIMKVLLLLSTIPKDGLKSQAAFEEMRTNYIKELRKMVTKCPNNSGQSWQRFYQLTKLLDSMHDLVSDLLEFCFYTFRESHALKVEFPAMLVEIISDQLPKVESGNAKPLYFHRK
As to the kind of experiment: Mineralocorticoid receptor binding affinity, [3H]-aldosterone filter binding assay. The procedure: Measurement of Mineralocorticoid Receptor Binding Affinity
The binding affinity of compounds for the mineralocorticoid receptor was determined by measuring their ability to prevent binding of radiolabeled aldosterone to recombinant rhesus mineralocorticoid receptor in a traditional filter binding assay protocol.
Rhesus mineralocorticoid receptor cDNA was cloned from a cDNA library using and used to prepare a recombinant baculovirus encoding the rhesus mineralocorticoid receptor coding sequence by standard molecular biological and cell biological methods. […] Cells were collected and lysed. The lysates were clarified by centrifugation and stored at −80 C until use in the radioligand binding assay.
[^3H]-Aldosterone (1 mCi/ml, 70-100 Ci/mmol) was purchased from Perkin Elmer (NET419). Test compounds were dissolved in DMSO and diluted in DMSO to 50 times the desired final concentrations for 3-fold serial dilution dose response curves. […] The insect cell lysate containing rhesus mineralocorticoid receptor was thawed and diluted to 0.7 mg protein/mL. Assay were started by combining 20 μL of test compound solution, 920 μL of diluted insect cell lysate, and 60 μL of [^3H]-aldosterone working solution in 2-mL 96-well polypropylene square well plates (USA Scientific) at 20° C. The mixture was incubated for 3 hr with continuous agitation on a platform shaker. […] The filter plate was washed 3 times with 0.5 mL of 50 mM Tris-HCl, pH 7.4 and then dried overnight at 37° C. in a vacuum oven. […] Non-specific radioligand binding was determined by adding non-radiolabeled aldosterone (0.5 mM in DMSO) to the assay mixture to a final concentration of 10 μM in place of test compound. IC50 and Ki values were determined using a four parameter logistic fit using a customized assay data analyzer software package.

In data set [2] the target is T2, Cav1.2 (Homo sapiens, UniProt Q13936).
T2 construct: expressed in transfected cells; host or cells: HEK293 cell line (Xia, et al., 2004) also expressing Kir2.3
Briefly: Calcium channel block, FLIPR TETRA fluorescence assay in HEK293 cells expressing L-type calcium channels. The data set is classed as cell-based. Conditions: pH 7.2, 25 mM potassium; for inhibition at 30 min, 0.3 μM: 0.3 μM compound, read-out: FLIPRIETRA Cav1.2 % Inhibition 0.3 μM; for inhibition at 30 min, 1 μM: 1 μm compound, read-out: FLIPRIETRA Cav1.2 % Inhibition 1 μm; for inhibition at 30 min, 3 μM: 3 μm compound, read-out: FLIPRIETRA Cav1.2 % Inhibition 3 μm; for inhibition at 30 min, 10 μM: 10 μm compound, read-out: FLIPRIETRA Cav1.2 % Inhibition 10 μm; for inhibition at 30 min, 30 μM: 30 μm compound, read-out: FLIPRIETRA Cav1.2 % Inhibition 30 μm. As to the method:
Measurement of Calcium Channel Block
A high-throughput fluorescence assay for state-dependent block of L-type channels was established as a counterscreen for blockers of N-type calcium channels. […] This allows the cell membrane potential to be preset during compound incubation, which can be used to assay state-dependent channel block. Running the assay in the presence of high potassium (25 mM) sets the membrane potential to a value (−35 mV) at which approximately half of the calcium channels are inactivated and some are open. This condition favors block by many L-type calcium channel blockers that lower blood pressure, including dihydropyridines, phenylalkylamines and benzothiazepines.
Initially, the compounds were incubated in 0.005 μM calcium and 25 mM potassium for 30 minutes. Calcium influx was triggered by buffer addition that raises the calcium concentration to 2 mM while maintaining the potassium concentration at 25 mM. Changes in intracellular calcium were then monitored using a calcium-sensitive fluorescent dye (fluo-4) and a FLIPR^TETRA plate reader.
The following experimental protocol was used:
1. Cells were seeded in a Poly-D-Lysine Coated 384-well plate (50 μl/well) and incubated overnight at 37° C. under 10% CO2;
4. Cells were then incubated in the dark at 25° C. for 30 minutes;
5. […] 25 mM KCl, 0.005 mM CaCl2, 1.7 mM MgCl2, 10 HEPES, pH=7.2;
6. 0.025 ml of 25 mM K PPB was then added, with or without the presence of a test compound;
7. Cells incubated in the dark at 25° C. for 30 min
8. Cell plates are then read on the FLIPR^TETRA instrument, Excitation=480 nm, Emission=535 nm;

Setting [3] is: average of Rep#1 and Rep#2, read-out: MRBIND Ki (nM) Average.
Setting [4] is: replicate 1, read-out: MRBIND Ki (nM) Rep#1.
The mark [5] stands for this setting: replicate 2, read-out: MRBIND Ki (nM) Rep#2.

T2 sequence (Q13936 whole entry): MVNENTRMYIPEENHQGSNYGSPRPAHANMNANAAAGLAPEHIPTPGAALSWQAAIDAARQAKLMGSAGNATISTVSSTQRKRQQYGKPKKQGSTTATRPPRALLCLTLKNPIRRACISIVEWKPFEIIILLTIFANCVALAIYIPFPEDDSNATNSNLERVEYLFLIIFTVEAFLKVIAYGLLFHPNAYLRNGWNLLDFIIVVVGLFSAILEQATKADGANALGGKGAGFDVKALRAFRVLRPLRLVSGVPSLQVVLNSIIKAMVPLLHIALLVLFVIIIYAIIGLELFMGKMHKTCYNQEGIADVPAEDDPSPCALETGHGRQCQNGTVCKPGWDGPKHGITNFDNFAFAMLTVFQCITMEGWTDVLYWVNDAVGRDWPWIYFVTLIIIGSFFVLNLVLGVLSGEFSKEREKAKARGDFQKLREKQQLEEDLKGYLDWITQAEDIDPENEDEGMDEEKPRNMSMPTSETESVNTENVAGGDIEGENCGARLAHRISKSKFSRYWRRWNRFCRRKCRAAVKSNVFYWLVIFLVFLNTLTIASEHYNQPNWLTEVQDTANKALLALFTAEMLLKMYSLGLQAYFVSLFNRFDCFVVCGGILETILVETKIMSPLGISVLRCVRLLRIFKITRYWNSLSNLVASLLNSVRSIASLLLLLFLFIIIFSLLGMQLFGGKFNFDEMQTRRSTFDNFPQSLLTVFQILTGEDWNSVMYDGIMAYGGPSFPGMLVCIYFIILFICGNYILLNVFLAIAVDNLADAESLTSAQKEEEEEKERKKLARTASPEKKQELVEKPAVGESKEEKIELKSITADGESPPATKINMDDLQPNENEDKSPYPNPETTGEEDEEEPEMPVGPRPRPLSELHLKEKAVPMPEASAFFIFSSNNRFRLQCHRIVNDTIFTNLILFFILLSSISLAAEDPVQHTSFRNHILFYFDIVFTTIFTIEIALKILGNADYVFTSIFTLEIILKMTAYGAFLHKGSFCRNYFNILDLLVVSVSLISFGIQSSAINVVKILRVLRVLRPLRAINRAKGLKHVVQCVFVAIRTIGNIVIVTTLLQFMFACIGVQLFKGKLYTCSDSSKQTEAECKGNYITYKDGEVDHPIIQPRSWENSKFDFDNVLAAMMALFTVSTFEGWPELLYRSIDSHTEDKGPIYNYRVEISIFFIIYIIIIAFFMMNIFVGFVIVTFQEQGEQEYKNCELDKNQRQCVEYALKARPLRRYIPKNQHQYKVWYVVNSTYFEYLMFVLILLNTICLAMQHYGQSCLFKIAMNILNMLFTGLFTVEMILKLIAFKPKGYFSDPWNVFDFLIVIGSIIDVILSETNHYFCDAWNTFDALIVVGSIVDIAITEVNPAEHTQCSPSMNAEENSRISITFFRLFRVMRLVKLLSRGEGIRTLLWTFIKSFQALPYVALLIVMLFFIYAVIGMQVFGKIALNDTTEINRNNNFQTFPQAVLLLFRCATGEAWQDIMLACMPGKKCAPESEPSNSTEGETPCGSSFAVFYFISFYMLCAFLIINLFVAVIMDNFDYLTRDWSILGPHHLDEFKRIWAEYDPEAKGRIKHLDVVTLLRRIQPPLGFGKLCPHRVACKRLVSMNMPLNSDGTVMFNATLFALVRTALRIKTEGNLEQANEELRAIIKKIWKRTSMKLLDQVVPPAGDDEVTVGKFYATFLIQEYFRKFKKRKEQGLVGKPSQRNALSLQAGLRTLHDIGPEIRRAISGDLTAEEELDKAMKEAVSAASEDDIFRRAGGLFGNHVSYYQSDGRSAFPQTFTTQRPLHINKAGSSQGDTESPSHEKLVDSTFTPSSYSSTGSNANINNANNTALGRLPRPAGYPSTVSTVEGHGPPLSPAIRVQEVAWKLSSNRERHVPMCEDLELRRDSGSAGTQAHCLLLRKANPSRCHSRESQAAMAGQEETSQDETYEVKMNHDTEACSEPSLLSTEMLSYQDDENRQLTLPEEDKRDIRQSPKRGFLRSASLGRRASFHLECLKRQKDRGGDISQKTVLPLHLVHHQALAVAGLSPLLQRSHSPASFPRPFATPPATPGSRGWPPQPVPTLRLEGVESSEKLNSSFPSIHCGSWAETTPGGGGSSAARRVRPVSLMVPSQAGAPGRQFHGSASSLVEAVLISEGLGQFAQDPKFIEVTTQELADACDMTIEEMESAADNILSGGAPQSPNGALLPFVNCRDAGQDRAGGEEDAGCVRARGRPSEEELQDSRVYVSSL
T2 sequence (P54289 25-946 partner limits assumed): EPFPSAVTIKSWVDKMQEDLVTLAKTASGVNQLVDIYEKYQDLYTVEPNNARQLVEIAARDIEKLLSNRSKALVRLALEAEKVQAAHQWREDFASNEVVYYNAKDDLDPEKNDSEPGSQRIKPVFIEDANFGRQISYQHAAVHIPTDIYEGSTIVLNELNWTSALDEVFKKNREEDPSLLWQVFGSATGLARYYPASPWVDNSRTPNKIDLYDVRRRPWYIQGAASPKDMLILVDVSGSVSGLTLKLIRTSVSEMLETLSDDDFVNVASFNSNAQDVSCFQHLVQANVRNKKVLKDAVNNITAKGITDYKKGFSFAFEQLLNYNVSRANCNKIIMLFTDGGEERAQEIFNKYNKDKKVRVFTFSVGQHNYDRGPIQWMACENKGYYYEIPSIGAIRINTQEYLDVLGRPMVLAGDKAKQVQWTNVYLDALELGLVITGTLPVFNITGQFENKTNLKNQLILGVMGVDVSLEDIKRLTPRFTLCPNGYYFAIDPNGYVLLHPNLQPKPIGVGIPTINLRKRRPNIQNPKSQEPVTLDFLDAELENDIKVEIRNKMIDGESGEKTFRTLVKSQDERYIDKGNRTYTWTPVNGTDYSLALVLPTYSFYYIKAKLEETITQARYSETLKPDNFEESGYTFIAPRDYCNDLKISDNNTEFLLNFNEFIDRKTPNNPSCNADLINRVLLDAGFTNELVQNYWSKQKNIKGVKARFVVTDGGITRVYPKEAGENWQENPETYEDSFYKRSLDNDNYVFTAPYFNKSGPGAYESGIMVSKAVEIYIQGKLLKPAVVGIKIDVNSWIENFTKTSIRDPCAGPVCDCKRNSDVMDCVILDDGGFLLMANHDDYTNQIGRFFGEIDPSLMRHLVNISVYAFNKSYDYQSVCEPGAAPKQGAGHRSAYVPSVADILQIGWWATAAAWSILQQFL
T2 sequence (P54289 947-1103 partner limits assumed): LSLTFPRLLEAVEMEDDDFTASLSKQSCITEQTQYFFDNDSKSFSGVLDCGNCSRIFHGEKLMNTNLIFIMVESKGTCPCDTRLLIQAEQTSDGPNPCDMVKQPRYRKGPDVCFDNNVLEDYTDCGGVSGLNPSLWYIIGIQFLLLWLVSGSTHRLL
T2 sequence (Q08289 whole entry partner): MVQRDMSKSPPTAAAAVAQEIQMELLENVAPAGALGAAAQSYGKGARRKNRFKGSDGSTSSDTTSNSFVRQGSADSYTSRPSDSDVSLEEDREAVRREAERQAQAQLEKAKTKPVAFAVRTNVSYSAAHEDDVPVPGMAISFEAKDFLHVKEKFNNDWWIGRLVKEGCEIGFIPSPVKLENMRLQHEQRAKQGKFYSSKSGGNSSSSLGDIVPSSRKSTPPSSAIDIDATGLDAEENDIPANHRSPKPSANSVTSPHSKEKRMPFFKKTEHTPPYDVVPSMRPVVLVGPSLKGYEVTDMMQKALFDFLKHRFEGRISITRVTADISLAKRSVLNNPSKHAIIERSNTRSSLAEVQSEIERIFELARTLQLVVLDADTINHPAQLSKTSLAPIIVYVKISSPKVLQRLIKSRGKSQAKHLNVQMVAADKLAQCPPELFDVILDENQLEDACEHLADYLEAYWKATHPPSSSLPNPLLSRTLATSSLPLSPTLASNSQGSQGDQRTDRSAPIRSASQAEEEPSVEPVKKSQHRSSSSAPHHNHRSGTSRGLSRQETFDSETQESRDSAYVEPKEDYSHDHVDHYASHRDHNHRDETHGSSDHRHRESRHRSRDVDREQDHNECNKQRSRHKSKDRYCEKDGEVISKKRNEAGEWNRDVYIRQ

For orientation: Ki means a measure of affinity in units of concentration, obtained from inhibition or displacement. As usually defined, the inhibition is the drop in the measured response relative to a control, in per cent. Turning to `CCSC1=C(C#N)C(c2ccccc2Cl)C(C(=O)Nc2ccccc2OC)=C(C)N1` (stereo not shown) [4-(2-chlorophenyl)-5-cyano-6-(ethylthio)-N-(2-methoxyphenyl)-2-methyl-1,4-dihydropyridine-3-carboxamide], the inhibition constant (Ki) in data set [1] (setting [3]) was determined as 53 nM. In addition, the Ki in data set [1] (setting [4]) came out at 90 nM. The Ki in data set [1] (setting [5]) is 16 nM. In data set [2], the inhibition at 30 min, 0.3 μM worked out at 41%; the inhibition at 30 min, 1 μM was 83%; the inhibition at 30 min, 3 μM amounted to 92%; the inhibition at 30 min, 10 μM came to 98%. In data set [2], the inhibition at 30 min, 30 μM was 104%.
For `COc1ccccc1NC(=O)C1=C(C)NC(SC)=C(C#N)C1c1ccccc1Cl` (stereo not shown) [4-(2-chlorophenyl)-5-cyano-N-(2-methoxyphenyl)-2-methyl-6-(methylthio)-1,4-dihydropyridine-3-carboxamide], the Ki in data set [1] (setting [3]) was found to be 193 nM. In data set [1] (setting [4]), the Ki worked out at 250 nM. Besides, the Ki in data set [1] (setting [5]) came out at 137 nM. For the same molecule, in data set [2], the inhibition at 30 min, 0.3 μM was -3%; the inhibition at 30 min, 1 μM stood at 14%; the inhibition at 30 min, 3 μM was determined as 35%; the inhibition at 30 min, 10 μM turned out to be 74%.
With `CCCSC1=C(C#N)C(c2ccccc2Cl)C(C(=O)Nc2ccccc2OC)=C(C)N1` (stereo not shown) [4-(2-chlorophenyl)-5-cyano-N-(2-methoxyphenyl)-2-methyl-6-(propylthio)-1,4-dihydropyridine-3-carboxamide], the Ki in data set [1] (setting [3]) was 14.9 nM. The Ki in data set [1] (setting [4]) worked out at 11.6 nM. Moreover, the Ki in data set [1] (setting [5]) amounted to 18.2 nM. Further, in data set [2], the inhibition at 30 min, 0.3 μM was found to be 31%; the inhibition at 30 min, 1 μM is 69%; the inhibition at 30 min, 3 μM is 90%; the inhibition at 30 min, 10 μM is 96%. For the same molecule, in data set [2], the inhibition at 30 min, 30 μM was 102%.
For the molecule `CCOc1ccccc1C1C(C#N)=C(SC)NC(C)=C1C(=O)Nc1ccccc1` (stereo not shown) [5-cyano-4-(2-ethoxyphenyl)-2-methyl-6-(methylthio)-N-phenyl-1,4-dihydropyridine-3-carboxamide], in data set [1] (setting [3]), the Ki stood at 1390 nM. For the same molecule, in data set [1] (setting [4]), the Ki is 1140 nM. Besides, in data set [1] (setting [5]), the Ki is 1650 nM. Also, in data set [2], the inhibition at 30 min, 0.3 μM worked out at 4%; the inhibition at 30 min, 1 μM came out at 26%; the inhibition at 30 min, 3 μM was determined as 55%; the inhibition at 30 min, 10 μM was 82%.
For `COC(=O)C1=C(C)NC(C)=C(C(=O)OC)C1c1cccc2ccccc12` [Dimethyl 2,6-dimethyl-4-(1-naphthyl)-1,4-dihydropyridine-3,5-dicarboxylate], the Ki in data set [1] (setting [3]) turned out to be 61 nM. In addition, in data set [1] (setting [4]), the Ki turned out to be 69 nM. Further, the Ki in data set [1] (setting [5]) was found to be 53 nM. In data set [2], the inhibition at 30 min, 0.3 μM was 80%; the inhibition at 30 min, 1 μM is 88%; the inhibition at 30 min, 3 μM was 94%; the inhibition at 30 min, 10 μM was 100%. Also, the inhibition at 30 min, 30 μM in data set [2] amounted to 104%.
Regarding `C=CCOC(=O)C1=C(C)NC(C)=C(C(=O)OCC=C)C1c1cccc([N+](=O)[O-])c1` [diallyl 2,6-dimethyl-4-(3-nitrophenyl)-1,4-dihydropyridine-3,5-dicarboxylate], the Ki in data set [1] (setting [3]) was found to be 462 nM. Also, the Ki in data set [1] (setting [4]) amounted to 472 nM. Moreover, the Ki in data set [1] (setting [5]) was 453 nM. In data set [2], the inhibition at 30 min, 0.3 μM turned out to be 81%; the inhibition at 30 min, 1 μM amounted to 83%; the inhibition at 30 min, 3 μM turned out to be 82%; the inhibition at 30 min, 10 μM turned out to be 81%.
On to `CCOC(=O)C1=C(C)NC(C)=C(C(=O)OCC)C1c1ccc([N+](=O)[O-])cc1` [diethyl 2,6-dimethyl-4-(4-nitrophenyl)-1,4-dihydropyridine-3,5-dicarboxylate], for which the Ki in data set [1] (setting [3]) came out at 219 nM. Besides, in data set [1] (setting [4]), the Ki was determined as 184 nM. Besides, the Ki in data set [1] (setting [5]) came out at 254 nM. Also, in data set [2], the inhibition at 30 min, 0.3 μM was 25%; the inhibition at 30 min, 1 μM turned out to be 43%; the inhibition at 30 min, 3 μM amounted to 59%; the inhibition at 30 min, 10 μM was found to be 76%.
